ChEMBL document CHEMBL3351417, “Thiophene-3-carboxamide analogue of annonaceous acetogenins as antitumor drug lead” (Eur J Med Chem, 2014)

Experiments:
[1] = Growth inhibition of human HBC4 cells after 48 hrs by sulforhodamine B colorimetric assay; type: functional; conditions: HBC4, 48 h
U-251 = test: Growth inhibition of human U251 cells after 48 hrs by sulforhodamine B colorimetric assay; type: functional; conditions: U-251, 48 h
SF-268 = test: Growth inhibition of human SF268 cells after 48 hrs by sulforhodamine B colorimetric assay; type: functional; conditions: SF-268, 48 h
[2] = Growth inhibition of human SF295 cells after 48 hrs by sulforhodamine B colorimetric assay; type: functional; conditions: SF-295, 48 h
SNB-75 = test: Growth inhibition of human SNB75 cells after 48 hrs by sulforhodamine B colorimetric assay; type: functional; conditions: SNB-75, 48 h
[3] = Growth inhibition of human SNB78 cells after 48 hrs by sulforhodamine B colorimetric assay; type: functional; conditions: SNB-78, 48 h
[4] = Growth inhibition of human HCC2998 cells after 48 hrs by sulforhodamine B colorimetric assay; type: functional; conditions: HCC 2998, 48 h
KM12 = test: Growth inhibition of human KM12 cells after 48 hrs by sulforhodamine B colorimetric assay; type: functional; conditions: KM12, 48 h
HT-29 = test: Growth inhibition of human HT-29 cells after 48 hrs by sulforhodamine B colorimetric assay; type: functional; conditions: HT-29, 48 h
[5] = Growth inhibition of human HCT15 cells after 48 hrs by sulforhodamine B colorimetric assay; type: functional; conditions: HCT-15, 48 h
[6] = Growth inhibition of human OVCAR5 cells after 48 hrs by sulforhodamine B colorimetric assay; type: functional; conditions: OVCAR-5, 48 h
SK-OV-3 = test: Growth inhibition of human SKOV3 cells after 48 hrs by sulforhodamine B colorimetric assay; type: functional; conditions: SK-OV-3, 48 h
[7] = Growth inhibition of human RXF631L cells after 48 hrs by sulforhodamine B colorimetric assay; type: functional; conditions: RXF 631, 48 h
DU-145 = test: Growth inhibition of human DU145 cells after 48 hrs by sulforhodamine B colorimetric assay; type: functional; conditions: DU-145, 48 h
[8] = Toxicity in human NCI-H23 cells xenografted in mouse ip dosed on day 0 and day; type: organism-based; conditions: in vivo
[9] = Growth inhibition of human BSY1 cells after 48 hrs by sulforhodamine B colorimetric assay; type: functional; conditions: BSY-1, 48 h
[10] = Growth inhibition of human HBC5 cells after 48 hrs by sulforhodamine B colorimetric assay; type: functional; conditions: HBC5, 48 h
MCF7 = test: Growth inhibition of human MCF7 cells after 48 hrs by sulforhodamine B colorimetric assay; type: functional; conditions: MCF7, 48 h
MDA-MB-231 = test: Growth inhibition of human MDA-MB-231 cells after 48 hrs by sulforhodamine B colorimetric assay; type: functional; conditions: MDA-MB-231, 48 h
[11] = Growth inhibition of human SF539 cells after 48 hrs by sulforhodamine B colorimetric assay; type: functional; conditions: SF-539, 48 h
[12] = Growth inhibition of human HCT116 cells after 48 hrs by sulforhodamine B colorimetric assay; type: functional; conditions: HCT-116, 48 h
NCI-H23 = test: Growth inhibition of human NCI-H23 cells after 48 hrs by sulforhodamine B colorimetric assay; type: functional; conditions: NCI-H23, 48 h
NCI-H226 = test: Growth inhibition of human NCI-H226 cells after 48 hrs by sulforhodamine B colorimetric assay; type: functional; conditions: NCI-H226, 48 h
NCI-H522 = test: Growth inhibition of human NCI-H522 cells after 48 hrs by sulforhodamine B colorimetric assay; type: functional; conditions: NCI-H522, 48 h
NCI-H460 = test: Growth inhibition of human NCI-H460 cells after 48 hrs by sulforhodamine B colorimetric assay; type: functional; conditions: NCI-H460, 48 h
A549 = test: Growth inhibition of human A549 cells after 48 hrs by sulforhodamine B colorimetric assay; type: functional; conditions: A549, 48 h
[13] = Growth inhibition of human DMS273 cells after 48 hrs by sulforhodamine B colorimetric assay; type: functional; conditions: DMS-273, 48 h
[14] = Growth inhibition of human DMS114 cells after 48 hrs by sulforhodamine B colorimetric assay; type: functional; conditions: DMS-114, 48 h
[15] = Growth inhibition of human LOXIMVI cells after 48 hrs by sulforhodamine B colorimetric assay; type: functional; conditions: LOX IMVI
[16] = Growth inhibition of human OVCAR3 cells after 48 hrs by sulforhodamine B colorimetric assay; type: functional; conditions: OVCAR-3, 48 h
[17] = Growth inhibition of human OVCAR4 cells after 48 hrs by sulforhodamine B colorimetric assay; type: functional; conditions: OVCAR-4, 48 h
[18] = Growth inhibition of human OVCAR8 cells after 48 hrs by sulforhodamine B colorimetric assay; type: functional; conditions: OVCAR-8, 48 h
ACHN = test: Growth inhibition of human ACHN cells after 48 hrs by sulforhodamine B colorimetric assay; type: functional
St-4 = test: Growth inhibition of human St-4 cells after 48 hrs by sulforhodamine B colorimetric assay; type: functional; conditions: St-4, 48 h
[19] = Growth inhibition of human MKN1 cells after 48 hrs by sulforhodamine B colorimetric assay; type: functional; conditions: MKN-1, 48 h
[20] = Growth inhibition of human MKN7 cells after 48 hrs by sulforhodamine B colorimetric assay; type: functional; conditions: MKN-7, 48 h
[21] = Growth inhibition of human MKN28 cells after 48 hrs by sulforhodamine B colorimetric assay; type: functional; conditions: MKN-28, 48 h
[22] = Growth inhibition of human MKN45 cells after 48 hrs by sulforhodamine B colorimetric assay; type: functional; conditions: MKN-45, 48 h
[23] = Growth inhibition of human MKN74 cells after 48 hrs by sulforhodamine B colorimetric assay; type: functional; conditions: MKN-74, 48 h
[24] = Growth inhibition of human PC3 cells after 48 hrs by sulforhodamine B colorimetric assay; type: functional; conditions: PC-3, 48 h

SMILES | GI50 [1] | GI50 (U-251) | GI50 (SF-268) | GI50 [2] | GI50 (SNB-75) | GI50 [3] | GI50 [4] | GI50 (KM12) | GI50 (HT-29) | GI50 [5] | GI50 [6] | GI50 (SK-OV-3) | GI50 [7] | GI50 (DU-145) | GI50 [9] | GI50 [10] | GI50 (MCF7) | GI50 (MDA-MB-231) | GI50 [11] | GI50 [12] | further results
CCCCCCCCCCCC[C@@H](O)[C@H]1CC[C@H]([C@H](O)CCCCCCCCCCNC(=O)c2ccnn2C)O1 | > 100 µM | > 100 µM | > 100 µM | 10 µM | 50.1 µM | > 100 µM | > 100 µM | > 100 µM | > 100 µM | > 100 µM | > 100 µM | > 100 µM | > 100 µM | > 100 µM | – | – | – | – | – | – | MTD [8]: 5 mg/kg
CCCCCCCCCCCC[C@@H](O)[C@H]1CC[C@H]([C@H](O)CCCCCCCCCCNC(=O)c2cncs2)O1 | > 100 µM | > 100 µM | > 100 µM | 43.7 µM | > 100 µM | > 100 µM | > 100 µM | > 100 µM | > 100 µM | > 100 µM | > 100 µM | > 100 µM | > 100 µM | > 100 µM | 3.98 µM | > 100 µM | > 100 µM | > 100 µM | 50.1 µM | 12.9 µM | GI50 (NCI-H23): 4.79 µM; GI50 (NCI-H226): > 100 µM; GI50 (NCI-H522): 19.1 µM; GI50 (NCI-H460): 34.7 µM; GI50 (A549): 34.7 µM; GI50 [13]: 19.1 µM; GI50 [14]: 0.219 µM; GI50 [15]: > 100 µM; GI50 [16]: > 100 µM; GI50 [17]: > 100 µM; GI50 [18]: > 100 µM; GI50 (ACHN): > 100 µM; GI50 (St-4): > 100 µM; GI50 [19]: > 100 µM; GI50 [20]: 0.617 µM; GI50 [21]: 0.832 µM; GI50 [22]: > 100 µM; GI50 [23]: 61.7 µM; GI50 [24]: > 100 µM
CCCCCCCCCCCC[C@@H](O)[C@H]1CC[C@H]([C@H](O)CCCCCCCCCCNC(=O)c2ccoc2)O1 | > 100 µM | > 100 µM | > 100 µM | > 100 µM | > 100 µM | > 100 µM | 79.4 µM | > 100 µM | > 100 µM | > 100 µM | > 100 µM | > 100 µM | > 100 µM | > 100 µM | 2.19 µM | > 100 µM | 26.9 µM | > 100 µM | > 100 µM | 3.47 µM | GI50 (NCI-H23): 3.02 µM; GI50 (NCI-H226): > 100 µM; GI50 (NCI-H522): 10 µM; GI50 (NCI-H460): > 100 µM; GI50 (A549): > 100 µM; GI50 [13]: > 100 µM; GI50 [14]: 0.191 µM; GI50 [15]: 21.9 µM; GI50 [16]: > 100 µM; GI50 [17]: 74.1 µM; GI50 [18]: 66.1 µM; GI50 (ACHN): > 100 µM; GI50 (St-4): 97.7 µM; GI50 [19]: > 100 µM; GI50 [20]: 0.372 µM; GI50 [21]: 0.55 µM; GI50 [22]: > 100 µM; GI50 [23]: 21.9 µM; GI50 [24]: 52.5 µM
